Test system: 616215-338-R-J1-PDC complex spheroid viability
Experiment: Anticancer human tumor 616215-338-R-J1-PDC patient-derived colon adenocarcinoma cell line growth inhibition [POLQ]
Details: for IC50: curve of first compound; for viability, T/C: stronger effect = lower value
Summary of the method: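 Three-cell-type spheroids modelling solid tumor plus stroma served as the readout system; POL inhibitors were tested individually and in combination, concentration ranges set by clinical Cmax where known.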

[1] = second compound 0.0316 µM, first compound 0.0316 µM
[2] = second compound 0.0316 µM, first compound 0.1 µM
[3] = second compound 0.0316 µM, first compound 0.316 µM
[4] = second compound 0.0316 µM, first compound 1 µM
[5] = second compound 0.0316 µM, first compound 3.16 µM
[6] = second compound 0.0316 µM, first compound 10 µM
[7] = second compound 0.1 µM, first compound 0.0316 µM
[8] = second compound 0.1 µM, first compound 0.1 µM
[9] = second compound 0.1 µM, first compound 0.316 µM
[10] = second compound 0.1 µM, first compound 1 µM
[11] = second compound 0.1 µM, first compound 3.16 µM
[12] = second compound 0.1 µM, first compound 10 µM
[13] = second compound 0.316 µM, first compound 0.0316 µM
[14] = second compound 0.316 µM, first compound 0.1 µM
[15] = second compound 0.316 µM, first compound 0.316 µM
[16] = second compound 0.316 µM, first compound 1 µM
[17] = second compound 0.316 µM, first compound 3.16 µM
[18] = second compound 0.316 µM, first compound 10 µM
[19] = second compound 1 µM, first compound 0.0316 µM
[20] = second compound 1 µM, first compound 0.1 µM
[21] = second compound 1 µM, first compound 0.316 µM
[22] = second compound 1 µM, first compound 1 µM
[23] = second compound 1 µM, first compound 3.16 µM
[24] = second compound 1 µM, first compound 10 µM
[25] = second compound 3.16 µM, first compound 0.0316 µM
[26] = second compound 3.16 µM, first compound 0.1 µM
[27] = second compound 3.16 µM, first compound 0.316 µM
[28] = second compound 3.16 µM, first compound 1 µM
[29] = second compound 3.16 µM, first compound 3.16 µM
[30] = second compound 3.16 µM, first compound 10 µM
[31] = second compound 10 µM, first compound 0.0316 µM
[32] = second compound 10 µM, first compound 0.1 µM
[33] = second compound 10 µM, first compound 0.316 µM
[34] = second compound 10 µM, first compound 1 µM
[35] = second compound 10 µM, first compound 3.16 µM
[36] = second compound 10 µM, first compound 10 µM
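Further: spheroids exposed to compounds for one week before readout.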
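Wherever viability, T/C is given: percent viability relative to DMSO vehicle wells taken as 100%.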

CNCc1ccc(-c2[nH]c3cc(F)cc4c3c2CCNC4=O)cc1 + Nc1ccc(C#CCN(C(=O)Cc2ncc(C(F)(F)F)cc2C(F)(F)F)c2ccc(F)cc2)nn1
IC50 (second compound 0.0316 µM): 7.9 µM | IC50 (second compound 0.1 µM): 7.18 µM | IC50 (second compound 0.316 µM): 7.71 µM | IC50 (second compound 1 µM): 7.52 µM | IC50 (second compound 3.16 µM): 7.03 µM | IC50 (second compound 10 µM): 6.23 µM | viability, T/C [1]: 101% | viability, T/C [2]: 107% | viability, T/C [3]: 97% | viability, T/C [4]: 104% | viability, T/C [5]: 104% | viability, T/C [6]: 36.2% | viability, T/C [7]: 104% | viability, T/C [8]: 111% | viability, T/C [9]: 90.3% | viability, T/C [10]: 119% | viability, T/C [11]: 122% | viability, T/C [12]: 25.8% | viability, T/C [13]: 102% | viability, T/C [14]: 112% | viability, T/C [15]: 104% | viability, T/C [16]: 95.7% | viability, T/C [17]: 119% | viability, T/C [18]: 33.4% | viability, T/C [19]: 107% | viability, T/C [20]: 94.8% | viability, T/C [21]: 95.8% | viability, T/C [22]: 105% | viability, T/C [23]: 106% | viability, T/C [24]: 33% | viability, T/C [25]: 96.8% | viability, T/C [26]: 93.3% | viability, T/C [27]: 93.8% | viability, T/C [28]: 102% | viability, T/C [29]: 105% | viability, T/C [30]: 28.6% | viability, T/C [31]: 93% | viability, T/C [32]: 78.5% | viability, T/C [33]: 102% | viability, T/C [34]: 103% | viability, T/C [35]: 103% | viability, T/C [36]: 17.9%

COc1cccc(OCCCN)c1-c1cc(Nc2cnc(C#N)cn2)n[nH]1 + Nc1ccc(C#CCN(C(=O)Cc2ncc(C(F)(F)F)cc2C(F)(F)F)c2ccc(F)cc2)nn1
IC50 (second compound 0.0316 µM): 0.136 µM | IC50 (second compound 0.1 µM): 0.0787 µM | IC50 (second compound 0.316 µM): 0.0759 µM | IC50 (second compound 1 µM): 0.0527 µM | IC50 (second compound 3.16 µM): 0.0661 µM | IC50 (second compound 10 µM): 0.039 µM | viability, T/C (second compound 0.0316 µM, first compound 0.00316 µM): 109% | viability, T/C (second compound 0.0316 µM, first compound 0.01 µM): 84.9% | viability, T/C [1]: 91.2% | viability, T/C [2]: 53.8% | viability, T/C [3]: 36.9% | viability, T/C [4]: 33.1% | viability, T/C (second compound 0.1 µM, first compound 0.00316 µM): 101% | viability, T/C (second compound 0.1 µM, first compound 0.01 µM): 102% | viability, T/C [7]: 77.3% | viability, T/C [8]: 43% | viability, T/C [9]: 42.6% | viability, T/C [10]: 36% | viability, T/C (second compound 0.316 µM, first compound 0.00316 µM): 98.9% | viability, T/C (second compound 0.316 µM, first compound 0.01 µM): 97.2% | viability, T/C [13]: 71.2% | viability, T/C [14]: 43.3% | viability, T/C [15]: 42.4% | viability, T/C [16]: 34.7% | viability, T/C (second compound 1 µM, first compound 0.00316 µM): 97.5% | viability, T/C (second compound 1 µM, first compound 0.01 µM): 96.6% | viability, T/C [19]: 60.3% | viability, T/C [20]: 38.6% | viability, T/C [21]: 38% | viability, T/C [22]: 29.4% | viability, T/C (second compound 3.16 µM, first compound 0.00316 µM): 103% | viability, T/C (second compound 3.16 µM, first compound 0.01 µM): 90.3% | viability, T/C [25]: 72.7% | viability, T/C [26]: 35.7% | viability, T/C [27]: 32.9% | viability, T/C [28]: 29.7% | viability, T/C (second compound 10 µM, first compound 0.00316 µM): 91.7% | viability, T/C (second compound 10 µM, first compound 0.01 µM): 69.3% | viability, T/C [31]: 50.2% | viability, T/C [32]: 41.2% | viability, T/C [33]: 34.4% | viability, T/C [34]: 24%

O=C(c1cc(Cc2n[nH]c(=O)c3ccccc23)ccc1F)N1CCN(C(=O)C2CC2)CC1 + Nc1ccc(C#CCN(C(=O)Cc2ncc(C(F)(F)F)cc2C(F)(F)F)c2ccc(F)cc2)nn1
IC50 (second compound 0.0316 µM): > 10 µM | IC50 (second compound 0.1 µM): > 10 µM | IC50 (second compound 0.316 µM): 8.94 µM | IC50 (second compound 1 µM): > 10 µM | IC50 (second compound 3.16 µM): > 10 µM | IC50 (second compound 10 µM): 9.49 µM | viability, T/C [1]: 102% | viability, T/C [2]: 99% | viability, T/C [3]: 113% | viability, T/C [4]: 99.9% | viability, T/C [5]: 88.5% | viability, T/C [6]: 55.5% | viability, T/C [7]: 110% | viability, T/C [8]: 94.7% | viability, T/C [9]: 104% | viability, T/C [10]: 94.1% | viability, T/C [11]: 88.6% | viability, T/C [12]: 66.9% | viability, T/C [13]: 105% | viability, T/C [14]: 103% | viability, T/C [15]: 92.6% | viability, T/C [16]: 88.3% | viability, T/C [17]: 102% | viability, T/C [18]: 44.8% | viability, T/C [19]: 99.8% | viability, T/C [20]: 97.6% | viability, T/C [21]: 94.4% | viability, T/C [22]: 103% | viability, T/C [23]: 80% | viability, T/C [24]: 55% | viability, T/C [25]: 112% | viability, T/C [26]: 107% | viability, T/C [27]: 99.6% | viability, T/C [28]: 93.3% | viability, T/C [29]: 98.1% | viability, T/C [30]: 54.1% | viability, T/C [31]: 96.3% | viability, T/C [32]: 88.7% | viability, T/C [33]: 80.7% | viability, T/C [34]: 79.7% | viability, T/C [35]: 81.3% | viability, T/C [36]: 47.9%
